Assay results published in patent US20240358732A1, “Use of Rutin and Rapamycin in the Preparation of Synergistic Chemotherapy Drugs for Tumor Inhibition” (priority 2023, published 2024).

What was measured:
PC3/PSC27 tumors [1] = assay: SA-β-Gal staining of PC3/PSC27 tumor tissue; format: in vivo, mice; conditions: PC3/PSC27 tumor lesions
Procedure: Comparison of cell senescence in PC3/PSC27 tumor-bearing animal lesions in preclinical experiments. Representative pictures after SA-β-Gal staining. […] Senescence-associated β-galactosidase (SA-β-Gal) staining was performed following a previously reported procedure (Debacq-Chainiaux et al., 2009). Briefly, cells in culture dishes were washed with PBS and fixed at room temperature. Cells were fixed in 2% formaldehyde and 0.2% glutaraldehyde for 3 minutes. SA-β-Gal was used for staining with freshly prepared staining solution overnight at 37° C. Images were taken on the next day and the percentage of positive cells per unit area was calculated.

PC3/PSC27 xenografts = assay: DNA damage and apoptosis of cancer cells in PC3/PSC27 xenografts; format: in vivo, mice; conditions: tumors dissected 7 days after initiation of treatment
[2] = test system: SASP factors, p16^INK4a, p21^CIP1; assay: qRT-PCR of SASP factors and senescence markers in tumor-bearing sites; format: in vivo, mice
Text: Varying expression levels of transcripts between the groups of a set of typical SASP molecules in tumor-bearing sites of mice according to the detection and analysis of fluorescent quantitative PCR (qRT-PCR). Data in each group is normalized for the sample with the lowest expression value within the group. IL6, IL8, AREG and ILla are included. […] Varying expression levels of transcripts between the groups of another set of typical SASP molecules in tumor-bearing sites of mice according to the detection and analysis of fluorescent quantitative PCR (qRT-PCR). Data in each group is normalized for the sample with the lowest expression value within the group. MMP1, MMP3, ANGPTL4 and SPINK1 are included. […] Varying expression levels of transcripts between the groups of a set of cellular senescence-specific biomarkers in tumor-bearing sites of mice according to the detection and analysis of fluorescent quantitative PCR (qRT-PCR). […] After the reaction was completed, the amplification of each gene was checked by software analysis, the corresponding threshold cycle number was derived, and the relative expression of each gene was calculated using the 2-ΔΔCt method. The peak and waveform of the melting curve was analyzed to determine whether the obtained amplification product was a specific single target fragment.

EREG = assay: ELISA of circulating serum SASP proteins; format: in vivo, mice; conditions: mouse serum
Procedure: (§1) FIG. 41. Circulating serum proteins of SASP typical factors in mice were examined using ELISA. Left, AREG. Right, EREG. […] The time points are as follows: all three drugs were administered to mice on the first day of the third, fifth and seventh weeks. A total of 3 cycles of administration was carried out throughout the course of treatment, and each cycle lasted for 2 weeks. After the course of treatment, mouse tumors were harvested for volume measurement and histological analysis. […] The chemotherapy experiment ended at the end of the 8th week, and the mice were dissected immediately after sacrifice, and the xenograft tumors were collected and used for pathological system analysis. […] For alternative chemotherapeutics, vincristine or vinblastine (dose: 1.0 mg/kg) is administered intraperitoneally.

AREG = assay: ELISA of circulating serum SASP proteins; format: in vivo, mice; conditions: mouse serum
Procedure: as §1

PC3/PSC27 tumors [3] = assay: Preclinical treatment trial, PC3/PSC27 xenograft tumor volume; format: in vivo, mice
PC3-only tumors = assay: Preclinical treatment trial, PC3-only tumor volume; format: in vivo, mice; conditions: single agents; absence of stromal cells
Procedure: All experimental mouse experiments were performed strictly following the relevant regulations of the experimental animals. Immuno-deficient mice(NOD-SCID mice, ICR) (body weight about 25 g) aged 6-8 weeks were used for animal experiments related to the present patent. Stromal cells PSC27 and epithelial cells PC3 were mixed at a predetermined ratio of 1:4, and each graft contained 1.25×10^6 cells for tissue remodeling. The xenograft tumors were implanted into mice by subcutaneous transplantation, and the animals were euthanized 8 weeks after the end of the transplantation surgery. Tumor volume was calculated according to the following formula: V=(π/6)×((1+w)/2)^3 (V, volume; 1, length; w, width). In a preclinical treatment trial, subcutaneously transplanted mice were fed with a standard experimental diet, after 2 weeks chemotherapy drugs mitoxantrone (MIT, dose: 0.2 mg/kg) and/or Rutin (500 μl, dose: 10 mg/kg), Rapamycin (500 μl, dose: 10 mg/kg) via intraperitoneal administration. The time points are as follows: all three drugs were administered to mice on the first day of the third, fifth and seventh weeks. A total of 3 cycles of administration was carried out throughout the course of treatment, and each cycle lasted for 2 weeks. After the course of treatment, mouse tumors were harvested for volume measurement and histological analysis. […] The chemotherapy experiment ended at the end of the 8th week, and the mice were dissected immediately after sacrifice, and the xenograft tumors were collected and used for pathological system analysis.

[4] = test system: MDA-MB-231/HBF1203 tumors; assay: Breast cancer xenograft treatment trial; format: in vivo, mice; conditions: end of 8th week
p65 and p50 (NF-κB) = assay: Immunoblot after separation of the nucleoplasm, PSC27 cells; format: cell-based, human
Procedure: Immunoblot analysis of cell lysates of PSC27 cells upon BELO and/or rutin intervention after separation of the nucleoplasm. C, cytoplasmic; N; Nuclear. Lamin A/C, loading control for nuclear proteins. GAPDH, loading control for cytoplasmic proteins. Cell lysate-derived proteins were separated using NuPAGE 4-12% Bis-Tris gel and transferred to nitrocellulose membranes (Life Technologies). The blot was blocked with 5% skimmed milk for 1 h at room temperature, incubated overnight at 4° C. with the desired primary antibody at the manufacturer's protocol concentration, and then incubated with horseradish peroxidase-conjugated secondary antibody (Santa Cruz) for 1 h. Blot signal detection was carried out with enhanced chemiluminescence (ECL) detection reagent (Millipore) according to the manufacturer's protocol, and ImageQuant LAS 400 Phospho-Imager (GE Healthcare) was used. As a standard protein marker, PageRuler Plus Prestained Protein Ladder (no. 26619) from Thermo Fisher Scientific was used by the inventors.

PSC27 cells [5] = assay: SA-β-Gal staining of PSC27 cells; format: cell-based, human; conditions: BLEO 50 μg/ml induces senescence, rutin tested on proliferating and BLEO-induced senescent cells
[6] = test system: PC3, DU145, M12 and LNCaP; assay: Drug resistance of prostate cancer cells cultured with PSC27 conditioned media; format: cell-based, human; conditions: rutin final concentration 100 μM
[7] = target: ATM and TRAF6 interaction (Homo sapiens, UniProt Q13315+Q9Y4K3); assay: p-ATM-mediated IP and immunoblot in PSC27 cells; format: cell-based; conditions: BLEO and/or rutin
SASP factors = assay: qRT-PCR of typical SASP factors in BLEO-induced senescent PSC27 cells; format: cell-based, human; conditions: IL6, IL8, IL1a, IL1β, CXCL3, MMP3, GM-CSF, 20-100 μM tested
IL8 (interleukin 8) = assay: NMA library screen: expression of SASP factor IL8 in PSC27 cells; format: cell-based, human; conditions: senescent PSC27 cells
PC3/PSC27 tumors [8] = assay: Xenografts of PC3 with PSC27 sublines (naive, senescent, pretreated); format: in vivo; conditions: PC3 + PSC27^SEN recombinants, SCID mice, 8 weeks, p<0.0001
[9] = target: ATM and HIF1α interaction (Homo sapiens, UniProt Q13315+Q16665); assay: p-ATM-mediated IP and immunoblot in PSC27 cells; format: cell-based; conditions: BLEO and/or rutin
PC3 cells = assay: Dose-response curves of PC3 cells with PSC27-BLEO CM exposed to MIT; format: cell-based, human; conditions: PC3 exposed to MIT at 0.1-1.0 μM; rutin 100 μM
PSC27 cells [10] = assay: ROS production in PSC27 cells with DCFH-DA; format: cell-based, human
Text: FIG. 23. Measurement of Reactive Oxygen Species (ROS) production in PSC27 cells under various conditions with DCFH-DA, a fluorescent reagent. Left, representative images, scale bar, […]; Right, comparative statistics.

TRAF6-TAK1 interaction = assay: p-TAK1-mediated IP and immunoblot in PSC27 cells; format: cell-based, human; conditions: BLEO and/or rutin
[11] = test system: PC3, DU145, M12 and LNCaP; assay: Proliferation, migration and invasion of prostate cancer cells cultured with PSC27 conditioned media; format: cell-based, human; conditions: rutin final concentration 100 μM
[12] = test system: ATM, TAK1, p38MAPK, PI3K/Akt/mTOR, IL8; assay: Immunoblot of DDR pathways and SASP expression in PSC27 cells; format: cell-based, human; conditions: for ATM activation / phosphorylation: BLEO-induced senescence, with or without rutin
PSC27 cells [13] = assay: RNA-seq / GSEA of PSC27 cells; format: cell-based, human
Procedure: Whole-transcriptome sequencing was performed on the primary human prostate stromal cell line PSC27 under different treatment conditions. Total RNA samples were obtained from stromal cells. Their integrity was verified by Bioanalyzer 2100 (Agilent), RNA was sequenced by Illumina HiSeq X10, and gene expression levels were quantified by software package […]/). Briefly, rRNA was depleted from RNA samples with the RiboMinus Eukaryote Kit (Qiagen, Valencia, CA, USA); and according to the manufacturer's instructions, TruSeq Stranded Total RNA Preparation Kits (Illumina, San Diego, CA, USA) was used to construct a strand-specific RNA-seq library before deep sequencing. Paired-end transcriptomic reads were mapped to a reference genome (GRCh38/hg38), and reference-annotation was performed from Gencode v27 using the Bowtie tool. Duplicate reads were identified using the picard Tools (1.98) script to mark duplicates (https://github.com/broadinstitute/picard), and only non-duplicate reads were retained. Reference splice junctions were provided by reference transcriptome (Ensembl Build 73). FPKM values were calculated with Cufflinks, and Cufflinks maximum likelihood estimation function was used to call differential gene expression. […] Next, Trim Galore (v0.3.0) (http://www.bioinformatics.babraham.ac.uk/projects/trim_galore/) was used to trim the reads, while the quality assessment was carried out by using FastQC (v0.10.0) (http://www.bioinformatics.bbsrc.ac.uk/projects/fastqc/). Subsequently, DAVID bioinformatics platform ( ) and ingenuity Pathways Analysis (IPA) program (http://www.ingenuity.com/index.html) were used. A preliminary analysis of the raw data was performed on a free online platform, Majorbio I-Sanger Cloud Platform (www.i-sanger.com) and the raw data were deposited in the NCBI Gene Expression Omnibus (GEO) database with access code GSE156448. Based on the data obtained from the preliminary analysis of RNA-seq, after analyzing and comparing each differentially expressed significant gene, the genes were sorted using the “wald statistics” obtained from DESeq2. GSEA was performed on the sorting lists of all planning gene sets available in MSigDB (http://software.broadinstitute.org/gsea/msigdb). DESeq2 independent filtering was based on the average of normalized read counts to select genes with very low expression levels. The SASP and GSEA signature were as described in our previous publication (Zhang et al., 2018a).

PSC27 cells [14] = assay: BrdU incorporation of PSC27 cells; format: cell-based, human; conditions: BLEO 50 μg/ml induces senescence, rutin tested on proliferating and BLEO-induced senescent cells
[15] = FIG. 14, senescence induction and rutin intervention, P<0.01, Fold change>4
[16] = senescent PSC27 upon rutin, 2-fold change of log 2-based, p<0.01

Sequence of ATM and TRAF6 interaction (Q13315 2-3056 limits assumed): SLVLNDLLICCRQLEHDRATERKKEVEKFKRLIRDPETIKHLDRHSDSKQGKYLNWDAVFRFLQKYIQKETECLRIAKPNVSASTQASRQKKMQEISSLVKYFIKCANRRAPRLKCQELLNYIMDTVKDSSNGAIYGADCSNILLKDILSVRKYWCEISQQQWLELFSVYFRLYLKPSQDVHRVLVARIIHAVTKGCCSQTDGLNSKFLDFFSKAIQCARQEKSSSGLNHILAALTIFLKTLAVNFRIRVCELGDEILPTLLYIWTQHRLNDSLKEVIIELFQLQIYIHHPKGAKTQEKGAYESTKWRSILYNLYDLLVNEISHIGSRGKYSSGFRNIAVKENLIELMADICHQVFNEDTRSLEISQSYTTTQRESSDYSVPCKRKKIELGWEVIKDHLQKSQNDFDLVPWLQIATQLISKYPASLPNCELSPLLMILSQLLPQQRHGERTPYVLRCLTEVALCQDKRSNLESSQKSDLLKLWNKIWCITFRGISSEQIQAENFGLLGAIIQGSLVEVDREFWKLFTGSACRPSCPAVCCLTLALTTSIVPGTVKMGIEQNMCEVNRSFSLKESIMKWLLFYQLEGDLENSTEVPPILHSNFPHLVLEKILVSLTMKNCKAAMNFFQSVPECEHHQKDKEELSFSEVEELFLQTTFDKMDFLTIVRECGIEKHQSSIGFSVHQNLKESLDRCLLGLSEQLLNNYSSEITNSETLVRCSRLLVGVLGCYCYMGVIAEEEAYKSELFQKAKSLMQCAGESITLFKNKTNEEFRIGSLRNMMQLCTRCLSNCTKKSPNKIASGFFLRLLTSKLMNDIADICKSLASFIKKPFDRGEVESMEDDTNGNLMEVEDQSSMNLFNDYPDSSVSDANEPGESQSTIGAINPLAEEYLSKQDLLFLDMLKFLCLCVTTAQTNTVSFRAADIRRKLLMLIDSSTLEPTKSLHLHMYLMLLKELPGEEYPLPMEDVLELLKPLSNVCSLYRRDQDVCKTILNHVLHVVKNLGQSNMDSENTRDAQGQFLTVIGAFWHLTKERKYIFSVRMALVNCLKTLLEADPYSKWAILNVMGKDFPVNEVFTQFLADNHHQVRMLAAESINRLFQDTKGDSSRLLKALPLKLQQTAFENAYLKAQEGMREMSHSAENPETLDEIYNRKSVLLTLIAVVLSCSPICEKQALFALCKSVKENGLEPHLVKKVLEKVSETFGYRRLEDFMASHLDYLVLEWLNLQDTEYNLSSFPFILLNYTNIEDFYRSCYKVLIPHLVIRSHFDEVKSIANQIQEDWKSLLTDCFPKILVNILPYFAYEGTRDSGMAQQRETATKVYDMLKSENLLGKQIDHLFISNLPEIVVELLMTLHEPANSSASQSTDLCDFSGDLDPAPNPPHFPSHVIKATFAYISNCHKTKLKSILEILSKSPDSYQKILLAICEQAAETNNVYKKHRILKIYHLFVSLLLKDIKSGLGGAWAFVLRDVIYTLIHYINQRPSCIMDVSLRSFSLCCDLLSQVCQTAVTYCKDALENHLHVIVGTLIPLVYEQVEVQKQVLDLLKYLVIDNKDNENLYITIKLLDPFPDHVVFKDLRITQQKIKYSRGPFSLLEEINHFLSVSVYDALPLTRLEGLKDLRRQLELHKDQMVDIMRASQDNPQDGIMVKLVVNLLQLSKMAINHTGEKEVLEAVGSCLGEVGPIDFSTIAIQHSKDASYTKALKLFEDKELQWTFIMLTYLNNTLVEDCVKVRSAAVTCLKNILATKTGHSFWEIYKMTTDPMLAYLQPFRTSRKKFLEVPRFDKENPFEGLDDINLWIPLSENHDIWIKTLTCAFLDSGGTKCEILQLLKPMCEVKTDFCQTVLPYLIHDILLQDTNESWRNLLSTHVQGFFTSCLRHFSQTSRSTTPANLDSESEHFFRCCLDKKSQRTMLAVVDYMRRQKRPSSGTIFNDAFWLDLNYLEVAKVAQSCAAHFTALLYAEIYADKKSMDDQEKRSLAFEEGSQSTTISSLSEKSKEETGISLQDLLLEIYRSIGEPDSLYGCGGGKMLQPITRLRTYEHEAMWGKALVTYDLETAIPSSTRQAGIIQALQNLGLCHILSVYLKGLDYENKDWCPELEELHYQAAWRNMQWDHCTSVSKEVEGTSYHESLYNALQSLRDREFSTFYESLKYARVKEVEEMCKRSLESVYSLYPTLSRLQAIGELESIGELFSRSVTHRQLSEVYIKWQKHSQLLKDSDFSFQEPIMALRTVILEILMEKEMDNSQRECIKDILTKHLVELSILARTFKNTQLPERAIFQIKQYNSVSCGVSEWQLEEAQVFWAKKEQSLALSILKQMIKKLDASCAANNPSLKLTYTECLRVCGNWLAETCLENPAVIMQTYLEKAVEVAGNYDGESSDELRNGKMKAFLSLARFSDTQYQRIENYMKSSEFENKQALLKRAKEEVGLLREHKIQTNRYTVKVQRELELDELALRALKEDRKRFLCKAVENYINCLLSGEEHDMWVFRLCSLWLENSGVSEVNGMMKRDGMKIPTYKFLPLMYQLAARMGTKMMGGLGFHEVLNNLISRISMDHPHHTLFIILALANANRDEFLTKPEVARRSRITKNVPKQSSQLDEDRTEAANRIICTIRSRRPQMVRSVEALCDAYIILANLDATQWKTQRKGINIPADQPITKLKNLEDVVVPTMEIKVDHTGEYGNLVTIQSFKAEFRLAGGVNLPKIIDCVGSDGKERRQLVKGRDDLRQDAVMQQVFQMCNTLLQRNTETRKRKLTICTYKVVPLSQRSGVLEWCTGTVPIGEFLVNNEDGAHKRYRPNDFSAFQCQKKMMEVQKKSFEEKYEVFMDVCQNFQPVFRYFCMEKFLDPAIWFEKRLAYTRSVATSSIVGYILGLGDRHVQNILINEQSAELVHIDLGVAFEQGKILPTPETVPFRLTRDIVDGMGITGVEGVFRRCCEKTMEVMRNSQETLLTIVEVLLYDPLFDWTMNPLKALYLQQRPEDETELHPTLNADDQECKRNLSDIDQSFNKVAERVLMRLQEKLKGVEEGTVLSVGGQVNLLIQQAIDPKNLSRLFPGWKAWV
Sequence of ATM and TRAF6 interaction (Q9Y4K3 whole entry): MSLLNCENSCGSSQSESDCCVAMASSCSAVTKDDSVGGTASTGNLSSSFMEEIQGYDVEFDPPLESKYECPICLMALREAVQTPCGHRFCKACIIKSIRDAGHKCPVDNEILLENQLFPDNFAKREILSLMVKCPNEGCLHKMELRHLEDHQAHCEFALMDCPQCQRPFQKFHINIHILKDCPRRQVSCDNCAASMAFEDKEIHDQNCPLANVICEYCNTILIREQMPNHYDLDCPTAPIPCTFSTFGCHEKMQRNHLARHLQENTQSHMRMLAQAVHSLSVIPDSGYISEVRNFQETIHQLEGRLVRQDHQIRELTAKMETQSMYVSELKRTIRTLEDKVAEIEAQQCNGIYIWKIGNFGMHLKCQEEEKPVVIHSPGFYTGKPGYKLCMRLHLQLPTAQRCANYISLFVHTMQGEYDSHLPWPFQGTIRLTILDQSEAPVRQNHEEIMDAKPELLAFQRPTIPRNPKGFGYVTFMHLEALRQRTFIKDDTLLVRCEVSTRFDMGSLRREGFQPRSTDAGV
Sequence of ATM and HIF1α interaction (Q13315 2-3056 limits assumed): as the sequence (Q13315 2-3056 limits assumed) above
Sequence of ATM and HIF1α interaction (Q16665 whole entry): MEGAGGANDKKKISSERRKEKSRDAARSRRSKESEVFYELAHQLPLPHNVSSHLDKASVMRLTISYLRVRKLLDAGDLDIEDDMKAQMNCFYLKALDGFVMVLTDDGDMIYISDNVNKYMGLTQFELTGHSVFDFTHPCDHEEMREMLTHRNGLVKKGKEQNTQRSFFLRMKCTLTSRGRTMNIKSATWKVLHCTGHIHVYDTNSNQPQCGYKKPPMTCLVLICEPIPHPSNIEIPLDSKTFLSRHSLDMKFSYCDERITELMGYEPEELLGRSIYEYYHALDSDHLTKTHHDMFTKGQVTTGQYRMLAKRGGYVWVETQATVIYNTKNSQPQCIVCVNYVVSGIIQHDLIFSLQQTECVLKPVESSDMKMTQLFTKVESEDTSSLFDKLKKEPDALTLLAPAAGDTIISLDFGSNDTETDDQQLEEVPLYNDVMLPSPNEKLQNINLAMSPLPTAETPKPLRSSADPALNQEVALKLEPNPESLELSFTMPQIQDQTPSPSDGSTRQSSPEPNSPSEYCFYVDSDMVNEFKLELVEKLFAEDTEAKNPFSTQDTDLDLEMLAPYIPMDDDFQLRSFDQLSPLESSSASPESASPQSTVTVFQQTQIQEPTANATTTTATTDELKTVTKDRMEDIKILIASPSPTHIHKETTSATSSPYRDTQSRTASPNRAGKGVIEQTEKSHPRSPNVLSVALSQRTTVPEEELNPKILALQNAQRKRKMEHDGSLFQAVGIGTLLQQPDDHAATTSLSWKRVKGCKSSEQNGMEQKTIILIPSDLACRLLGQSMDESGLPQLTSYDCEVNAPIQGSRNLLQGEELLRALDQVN

Compound: O=C1c2c(O)ccc(O)c2C(=O)c2c(NCCNCCO)ccc(NCCNCCO)c21 [MIT, mitoxantrone]
- tissue senescence by SA-β-GAL staining (PC3/PSC27 tumors [1]): considerable tissue senescence
- DNA damage (DDR) in cancer cells (PC3/PSC27 xenografts): substantial
- apoptosis / cell death in cancer cells (PC3/PSC27 xenografts): substantial
- expression of typical SASP factors in tumors ([2]; IL6, IL8, AREG, IL1a, MMP1, MMP3, ANGPTL4, SPINK1): significant upregulation
- typical senescence markers in tumors ([2]; p16^INK4a, p21^CIP1 and SA-β-GAL): induction
- circulating EREG level (EREG): elevated levels
- circulating AREG level (AREG): elevated levels
- tumor sizes in contrast to placebo (PC3/PSC27 tumors [3]; 8-week regimen, MIT on 1st day of 3rd, 5th, 7th week): remarkably reduced tumor sizes
- tumor volume decrease (PC3/PSC27 tumors [3]; PC3/PSC27 tumors, MIT alone, end of 8th week): 35.5%
- effect on PC3-only tumors (PC3-only tumors): caused shrinkage

Compound: CC[C@]1(O)C[C@H]2CN(CCc3c([nH]c4ccccc34)[C@@](C(=O)OC)(c3cc4c(cc3OC)N(C=O)[C@H]3[C@@](O)(C(=O)OC)[C@H](OC(C)=O)[C@]5(CC)C=CCN6CC[C@]43[C@@H]65)C2)C1 [VIN, vincristine]
- outcome of combination of the chemotherapeutic drug with rutin and rapamycin [4]: did not exhibit the characteristics of effective drug combination therapy

Compound: COc1cccc2c1C(=O)c1c(O)c3c(c(O)c1C2=O)C[C@@](O)(C(=O)CO)C[C@@H]3O[C@H]1C[C@H](N)[C@H](O)[C@H](C)O1 [doxorubicin]
- outcome of combination of the chemotherapeutic drug with rutin and rapamycin [4]: largely reproduced the results of preclinical experiments performed with PCa system

Compound: CO[C@H]1C[C@@H]2CC[C@@H](C)[C@@](O)(O2)C(=O)C(=O)N2CCCC[C@H]2C(=O)O[C@H]([C@H](C)C[C@@H]2CC[C@@H](O)[C@H](OC)C2)CC(=O)[C@H](C)/C=C(\C)[C@@H](O)[C@@H](OC)C(=O)[C@H](C)C[C@H](C)/C=C/C=C/C=C/1C [rapamycin]
- effect on PC3-only tumors (PC3-only tumors): did not show a remarkable effect

Compound: C[C@@H]1O[C@@H](OC[C@H]2O[C@@H](Oc3c(-c4ccc(O)c(O)c4)oc4cc(O)cc(O)c4c3=O)[C@H](O)[C@@H](O)[C@@H]2O)[C@H](O)[C@H](O)[C@H]1O [rutin]
- cytoplasm-to-nucleus translocation of p65 and p50 upon cellular senescence (p65 and p50 (NF-κB)): largely abolished
- SA-β-Gal staining (PSC27 cells [5]): remained largely unchanged
- counteraction of the increase in cancer cell viability upon senescent stromal cell-derived CM [6]: about 80%
- interaction of ATM and TRAF6 [7]: significantly weakens
- concentration with the most optimal effects in restraining expression of typical SASP components (SASP factors): 100 µM
- expression of interleukin 8 (IL8), a hallmark SASP factor (senomorphic potential) (IL8 (interleukin 8)): prominent efficacy in downregulating
- tumor volumes after pretreatment of PSC27^SEN cells in vitro (PC3/PSC27 tumors [8]): considerably reduced tumor volumes
- mutual interaction between ATM and HIF1α [9]: subject to interruption
- cancer resistance conferred by the CM of senescent stromal cells (PC3 cells): remarkably downregulate cancer resistance
- ROS generation by senescent cells (PSC27 cells [10]; PSC27, BLEO-induced senescent): significantly suppressed
- production of ROS in proliferating cells (PSC27 cells [10]; PSC27, proliferating): did not change
- tissue senescence by SA-β-GAL staining (PC3/PSC27 tumors [1]): neither promote nor suppress senescence
- TAK1 activation and TRAF6-TAK1 interaction (TRAF6-TAK1 interaction): considerably restrained
- gain-of-functions (proliferation, migration, invasion; malignancy) conferred by CM from senescent PSC27 cells [11]: almost completely disappeared
- ATM activation / phosphorylation [12]: remained largely unaffected
- TAK1 phosphorylation, p38MAPK activation, PI3K/Akt/mTOR activation and IL8 upregulation after BLEO ([12]; in the presence of rutin): generally diminished
- effect on PC3-only tumors (PC3-only tumors): did not show a remarkable effect
- genes down-regulated (PSC27 cells [13]; [15]): 3733 genes
- genes up-regulated (PSC27 cells [13]; [15]): 886 genes
- transcriptome-wide expression of SASP factors (PSC27 cells [13]; RNA-seq, senescent PSC27 cells treated with rutin): most of the SASP factors were indeed downregulated
- GSEA SASP signature (PSC27 cells [13]; senescent PSC27 cells treated with rutin): specifically and significantly inhibited SASP
- transcripts downregulated (PSC27 cells [13]; [16]): 3733 transcripts
- transcripts significantly modified (PSC27 cells [13]; [16]): 4619 transcripts
- transcripts upregulated (PSC27 cells [13]; [16]): 886 transcripts
- BrdU incorporation (PSC27 cells [14]): remained largely unchanged

Compound: CC[C@]1(O)C[C@H]2CN(CCc3c([nH]c4ccccc34)[C@@](C(=O)OC)(c3cc4c(cc3OC)N(C=O)[C@H]3[C@@](O)(C(=O)OC)[C@H](OC(C)=O)[C@]5(CC)C=CCN6CC[C@]43[C@@H]65)C2)C1 [vincristine]
- benefit of the chemotherapeutic drug from combined use of rutin and/or rapamycin (PC3/PSC27 tumors [3]; PC3 and PC3/PSC27 tumors): did not show such benefits

Compound: bleomycin [reference compound]
- SA-β-Gal staining (PSC27 cells [5]): elevated positivity
- ROS levels in contrast to normal counterparts (PSC27 cells [10]; PSC27 cells after BLEO genotoxicity): remarkably elevated ROS levels
- ATM activation / phosphorylation [12]: markedly activated
- BrdU incorporation (PSC27 cells [14]): reduced BrdU incorporation
